In publication PMC9304199, “A small molecule CFTR potentiator restores ATP‐dependent channel gating to the cystic fibrosis mutant G551D‐CFTR” (British Journal of Pharmacology, 2022):

Tests used:
[1] = target: T1, G551D‐CFTR (Homo sapiens, UniProt P13569, G551D); assay: Automated planar patch-clamp whole-cell Cl− currents in HEK cells; assay type: cell-based; set-up: expressed in transfected cells; details: for EC50: G551D‐CFTR HEK cells, whole-cell currents, automated electrophysiology, 23°C, read-out: EC50 (μM) (95% CI); for Emax: HEK293, read-out: Maximal effect (%) (95% CI)
T1 sequence (P13569 whole entry G551D): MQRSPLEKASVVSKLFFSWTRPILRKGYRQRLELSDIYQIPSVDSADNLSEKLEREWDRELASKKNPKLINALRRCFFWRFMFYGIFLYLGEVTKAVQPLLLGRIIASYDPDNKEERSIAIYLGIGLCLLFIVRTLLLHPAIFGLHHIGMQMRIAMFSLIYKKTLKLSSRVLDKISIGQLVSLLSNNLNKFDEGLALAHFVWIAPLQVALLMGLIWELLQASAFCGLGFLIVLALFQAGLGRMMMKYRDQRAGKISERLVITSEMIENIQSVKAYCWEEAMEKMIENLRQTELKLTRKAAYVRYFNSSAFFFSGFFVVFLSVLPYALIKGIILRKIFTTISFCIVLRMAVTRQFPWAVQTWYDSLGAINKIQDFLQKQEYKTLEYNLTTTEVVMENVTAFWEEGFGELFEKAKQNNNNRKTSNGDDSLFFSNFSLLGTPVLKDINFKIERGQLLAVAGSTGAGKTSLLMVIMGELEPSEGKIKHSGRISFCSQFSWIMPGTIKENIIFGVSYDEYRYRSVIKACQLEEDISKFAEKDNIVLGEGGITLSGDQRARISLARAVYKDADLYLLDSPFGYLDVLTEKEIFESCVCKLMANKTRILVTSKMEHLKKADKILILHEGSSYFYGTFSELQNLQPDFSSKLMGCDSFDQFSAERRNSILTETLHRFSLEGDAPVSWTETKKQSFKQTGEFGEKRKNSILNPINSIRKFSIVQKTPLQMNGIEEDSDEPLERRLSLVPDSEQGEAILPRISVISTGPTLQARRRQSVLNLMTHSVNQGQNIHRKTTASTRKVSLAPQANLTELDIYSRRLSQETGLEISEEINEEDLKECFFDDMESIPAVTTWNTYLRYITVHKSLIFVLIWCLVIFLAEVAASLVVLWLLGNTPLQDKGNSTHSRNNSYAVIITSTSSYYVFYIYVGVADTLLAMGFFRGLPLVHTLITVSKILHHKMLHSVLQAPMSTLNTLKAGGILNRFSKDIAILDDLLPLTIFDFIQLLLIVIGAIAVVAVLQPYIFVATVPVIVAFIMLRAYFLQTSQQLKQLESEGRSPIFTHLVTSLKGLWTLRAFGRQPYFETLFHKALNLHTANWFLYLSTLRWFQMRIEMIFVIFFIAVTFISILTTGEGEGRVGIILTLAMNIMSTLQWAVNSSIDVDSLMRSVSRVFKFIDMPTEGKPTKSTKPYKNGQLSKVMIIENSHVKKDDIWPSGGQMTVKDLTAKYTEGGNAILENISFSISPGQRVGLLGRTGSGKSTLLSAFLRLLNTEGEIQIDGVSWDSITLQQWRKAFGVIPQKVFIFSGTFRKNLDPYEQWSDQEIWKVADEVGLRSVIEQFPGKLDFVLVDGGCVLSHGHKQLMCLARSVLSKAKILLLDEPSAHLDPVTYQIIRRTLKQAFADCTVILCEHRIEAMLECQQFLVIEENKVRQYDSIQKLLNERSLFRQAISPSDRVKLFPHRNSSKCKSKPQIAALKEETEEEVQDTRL
Procedure: For CFTR studies using automated electrophysiology and single-channel recording, we used baby hamster kidney (BHK) cells (RRID:CVCL_1915) and human embryonic kidney (HEK) 293 cells (RRID:CVCL_0045) stably expressing wild-type human CFTR and the CFTR variants F508del- and […] et al., [2002]; Xu et al., [2014]). […] HEK cells expressing CFTR variants were generated using the Flp-InTM system as described above for F508del- and G551D-CFTR-expressing FRT cells. They were cultured in Dulbecco's modified Eagle's medium (glucose, 1.5 g·L^-1; sodium pyruvate, 110 mg·L^-1) supplemented with 10% FBS (PAA Laboratories), GlutaMAXTM and hygromycin-B (150 μg·ml^-1; InvitrogenTM, Thermo Fisher Scientific) at 37°C in a humidified atmosphere with 5% CO2. Prior to study, F508del-CFTR expressed in HEK cells was trafficked to the plasma membrane by low temperature incubation (27°C for 24-72 h). The single-channel behaviour of human CFTR in excised membrane patches from different mammalian cell lines heterologously expressing CFTR is equivalent (wild-type CFTR, Chen et al., [2009]; F508del-CFTR, Bose et al., [2019]; and G551D-CFTR, J Liu, Y Wang, Z Cai, and DN Sheppard, unpublished observations). […] The continuous lines are the fit of sigmoidal concentration-response functions to mean data. […] (Figure S2D: Normality Test (Shapiro-Wilk), P = 0.124 (passed); Equal Variance Test (Brown-Forsythe), P = 0.092 (passed)). Click here for additional data file.

[2] = target: T1, G551D‐CFTR; assay: Ussing chamber apical Cl− current (ICl apical) in FRT epithelia expressing G551D‐CFTR; assay type: cell-based; set-up: assays at Charles River Laboratories (ChanTest); details: for EC50: G551D‐CFTR FRT epithelia, ICl apical, 27°C, read-out: EC50 (μM) (95% CI); for Emax: read-out: Maximal effect (%) (95% CI)
Procedure: Ussing chamber studies to determine the concentration–response relationships of CFTR potentiators (Figure 1c–f) were performed at Charles River Laboratories (ChanTest) (Cleveland, OH, USA). For these studies, FRT cells were stably transfected with CFTR cDNAs with the F508del and G551D variants and the common polymorphism M470 (synthesised by System Biosciences, Palo Alto, CA, USA) using the Flp‐In™ system (Thermo Fisher Scientific, Waltham, MA, USA). The F508del‐CFTR cDNA contained the following differences from the canonical CFTR cDNA sequence (NCBI Accession Number NM_000492): del CTT (1521–1523) to delete F508; synonymous changes T > C (798), A > G (801), T > C (804) to remove a cryptic bacterial promoter; synonymous change T > C (1095); G > A (1408) to give M470 and was amplified using the primers 5′ […] 3′ and 5′ […] 3′. The G551D‐CFTR cDNA contained the following differences from the canonical CFTR cDNA sequence (NCBI Accession Number NM_000492): G > A (1652) to replace G551 with D551; synonymous changes T > C (798), A > G (801), T > C (804) to remove a cryptic bacterial promoter; synonymous change A > C (516); synonymous change T > C (1095); G > A (1408) to give M470 and was amplified using the primers 5′ […] 3′ and 5′ […] 3′. Using Kpn1 and Not1 restriction sites, the F508del‐ and G551D‐CFTR cDNAs were inserted into pcDNA5/FRT (Flp‐In™) (RRID:Addgene_31984). An FRT cell line stably expressing a flippase (Flp)‐recombinase recognition target integration site (generated by Evotec AG, Hamburg, Germany, using isogenic FRT cells from LJV Galietta) was transfected with the F508del‐ and G551D‐CFTR plasmids and the Flp recombinase plasmid pOG44 (RRID:Addgene_129419) following the manufacturer's instructions. To identify FRT cells expressing F508del‐ and G551D‐CFTR, cells were grown under hygromycin selection and individual clones picked, expanded, and verified for CFTR expression. For Ussing chamber studies to determine the plasma membrane stability of F508del‐CFTR, FRT cells expressing F508del‐CFTR from LJV Galietta were cultured and used as described previously (Meng et al., [2017]).
To grow FRT cells as polarised epithelia, 2 × 10^5 FRT cells were seeded on Snapwell filter inserts and cultured for 7–14 days before use; media were changed every 2–3 days. […]
To test the effects of CP‐628006 on CFTR Cl^− channels in the apical membrane of FRT epithelia, we permeabilized the basolateral membrane with amphotericin B (100 μM). After cancelling voltage offsets, we clamped transepithelial voltage at 0 mV and measured apical Cl^− current (ICl ^apical) continuously using a Physiologic Instruments VCC MC6/8 multichannel voltage/current clamp (Li et al., [2004]).

SMILES	EC50 [1]	Emax [1]	EC50 [2]	Emax [2]
Cc1ncccc1CNC(=O)c1ccc2c(c1)CC[C@H]1C[C@](O)(CCC(F)(F)F)CC[C@]21Cc1ccccc1 (racemic) [CP‐628006, rac‐(4bR,7R,8aS)‐4b‐benzyl‐7‐hydroxy‐N‐((2‐methylpyridin‐3‐yl)methyl)‐7‐(3,3,3‐trifluoropropyl)‐4b,5,6,7,8,8a,9,10‐octahydrophenanthrene‐2‐carboxamide]	5.13 µM	72%	1.68 µM	39%
CC(C)(C)c1cc(C(C)(C)C)c(NC(=O)c2c[nH]c3ccccc3c2=O)cc1O [ivacaftor, reference compound]	0.82 µM	70%	0.003 µM	97%
